# Assay results published in ChEMBL document CHEMBL4418314, “Cyano-substituted heterocycles with activity as inhibitors of usp30” (2018).
# Biological target: T1, Ubiquitin carboxyl-terminal hydrolase 30 (Homo sapiens, UniProt Q70CQ3)
# T1 sequence (Q70CQ3 whole entry): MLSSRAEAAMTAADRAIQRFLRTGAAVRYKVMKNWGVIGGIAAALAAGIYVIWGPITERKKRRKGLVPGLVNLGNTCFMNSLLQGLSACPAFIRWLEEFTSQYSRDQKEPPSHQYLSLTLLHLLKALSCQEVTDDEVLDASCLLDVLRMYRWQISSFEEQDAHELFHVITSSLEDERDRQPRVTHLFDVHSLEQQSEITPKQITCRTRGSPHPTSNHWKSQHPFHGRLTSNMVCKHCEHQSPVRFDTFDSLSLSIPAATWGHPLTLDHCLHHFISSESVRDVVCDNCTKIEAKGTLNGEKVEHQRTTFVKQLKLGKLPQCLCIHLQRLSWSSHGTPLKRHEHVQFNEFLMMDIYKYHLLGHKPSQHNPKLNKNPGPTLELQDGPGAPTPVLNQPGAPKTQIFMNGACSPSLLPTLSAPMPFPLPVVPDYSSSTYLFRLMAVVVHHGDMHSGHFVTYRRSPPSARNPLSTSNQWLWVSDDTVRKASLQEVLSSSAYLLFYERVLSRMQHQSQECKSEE
# Test: Inhibition of untagged human USP30 catalytic domain (57 to 517 residues) expressed in Escherichia coli using TAMRA labeled ubiquitin peptide as substrate preincubated for 30 min followed by substrate addition and measured after 2 hrs by fluorescence polarization assay
structure (smiles),measurement,value
N#CN1CCC[C@](F)(C(=O)Nc2cc(-c3cccc(C(F)(F)F)c3)on2)C1,IC50,< 100 nM
